Assay results from US9828385B2, “Spiro-oxazolones” (Hoffmann-La Roche Inc., priority 2014, dated 2017).

Target: T1, human V1a receptor (Homo sapiens, UniProt P37288)
T1 construct: expressed in transfected cells; host or cells: HEK293 cells, transiently transfected; cell membranes
Experiment: human V1a receptor binding studies (3H-Vasopressin, SPA beads)
Details: membranes of HEK293 cells transiently transfected with human V1a receptor, Ki by Cheng-Prussoff from IC50, read-out: pKi hV1a (converted)
Procedure, shortened: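 Membranes from transiently transfected HEK293 cells expressing cloned human V1a receptor, on yttrium silicate SPA beads, competed against 4 nM 3H-vasopressin (added stock concentration) in Tris buffer with NaCl, KCl, CaCl2, MgCl2 for 1 h at room temperature. Nonspecific binding with cold vasopressin; IC50 by nonlinear fit, Ki via Cheng-Prusoff.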

T1 sequence (P37288 whole entry): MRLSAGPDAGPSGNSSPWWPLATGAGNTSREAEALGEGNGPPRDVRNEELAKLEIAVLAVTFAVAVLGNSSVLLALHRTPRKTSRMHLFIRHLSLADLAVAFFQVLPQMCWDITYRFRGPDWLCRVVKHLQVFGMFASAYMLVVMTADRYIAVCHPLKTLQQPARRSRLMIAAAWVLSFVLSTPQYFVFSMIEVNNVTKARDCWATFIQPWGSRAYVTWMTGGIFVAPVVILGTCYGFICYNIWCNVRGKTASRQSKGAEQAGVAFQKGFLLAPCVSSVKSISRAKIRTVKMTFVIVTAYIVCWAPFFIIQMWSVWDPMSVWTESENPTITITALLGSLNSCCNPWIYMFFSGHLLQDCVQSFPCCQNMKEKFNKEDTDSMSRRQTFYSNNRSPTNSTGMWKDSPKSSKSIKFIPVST

Ki | SMILES
31.6 nM | CC1(C(F)c2ccc(Cl)cc2)OC(N2CCC3(CC2)OCc2ccccc23)=NC1=O (centres unmarked) [Example 92, 5-[(4-Chlorophenyl)(fluoro)methyl]-5-methyl-2-(1′H,3H-spiro[2-benzofuran-1,4′-piperidin]-1′-yl)-1,3-oxazol-4(5H)-one]
126 nM | CC1(C(O)c2ccc(Cl)cc2)OC(N2CCC3(CC2)OC(=O)c2ccccc23)=NC1=O (centres unmarked) [Example 93, 1′-{5-[(4-Chlorophenyl)(hydroxy)methyl]-5-methyl-4-oxo-4,5-dihydro-1,3-oxazol-2-yl}-3H-spiro[2-benzofuran-1,4′-piperidin]-3-one]
1 nM | O=C1N=C(N2CCC3(CC2)OCc2ccccc23)OC1(Cc1ccc(Cl)cc1)Cc1ccc(Cl)cc1 [Example 94, 5,5-bis(4-Chlorobenzyl)-2-(1′H,3H-spiro[2-benzofuran-1,4′-piperidin]-1′-yl)-1,3-oxazol-4(5H)-one]
5.01 nM | O=C1OC2(CCN(C3=NC(=O)C(Cc4ccc(Cl)cc4)(Cc4ccc(Cl)cc4)O3)CC2)c2ccccc21 [Example 95, 1′-[5,5-Bis(4-chlorobenzyl)-4-oxo-4,5-dihydro-1,3-oxazol-2-yl]-3H-spiro[2-benzofuran-1,4′-piperidin]-3-one]
251 nM | CC1(CN2CCCC2)OC(N2CCC3(CC2)OCc2ccccc23)=NC1=O (centres unmarked) [Example 98, 5-Methyl-5-(pyrrolidin-1-ylmethyl)-2-(1′H,3H-spiro[2-benzofuran-1,4′-piperidin]-1′-yl)-1,3-oxazol-4(5H)-one]
200 nM | CC1(CC2CCCO2)OC(N2CCC3(CC2)OCc2ccccc23)=NC1=O (centres unmarked) [Example 101, 5-Methyl-2-(1′H,3H-spiro[2-benzofuran-1,4′-piperidin]-1′-yl)-5-(tetrahydrofuran-2-ylmethyl)-1,3-oxazol-4(5H)-one]

Further lines, the compound ahead of its results:

SMILES | Ki
CC1(CC2CCCC2)OC(N2CCC3(CC2)OCc2ccccc23)=NC1=O (centres unmarked) [Example 76, 5-(Cyclopentylmethyl)-5-methyl-2-(1′H,3H-spiro[2-benzofuran-1,4′-piperidin]-1′-yl)-1,3-oxazol-4(5H)-one] | 5.01 nM
CC1(CC2CCCCC2)OC(N2CCC3(CC2)OCc2ccccc23)=NC1=O (centres unmarked) [Example 79, 5-(Cyclohexylmethyl)-5-methyl-2-(1′H,3H-spiro[2-benzofuran-1,4′-piperidin]-1′-yl)-1,3-oxazol-4(5H)-one] | 20 nM
CC1(Cc2ccc(Cl)nc2)OC(N2CCC3(CC2)OCc2ccccc23)=NC1=O (centres unmarked) [Example 82, 5-[(6-Chloropyridin-3-yl)methyl]-5-methyl-2-(1′H,3H-spiro[2-benzofuran-1,4′-piperidin]-1′-yl)-1,3-oxazol-4(5H)-one] | 50.1 nM
CC1(Cc2ccc(Cl)s2)OC(N2CCC3(CC2)OCc2ccccc23)=NC1=O (centres unmarked) [Example 85, 5-[(5-Chlorothiophen-2-yl)methyl]-5-methyl-2-(1′H,3H-spiro[2-benzofuran-1,4′-piperidin]-1′-yl)-1,3-oxazol-4(5H)-one] | 5.01 nM
CC1(Cc2c(F)c(F)c(F)c(F)c2F)OC(N2CCC3(CC2)OCc2ccccc23)=NC1=O (centres unmarked) [Example 88, 5-Methyl-5-(pentafluorobenzyl)-2-(1′H,3H-spiro[2-benzofuran-1,4′-piperidin]-1′-yl)-1,3-oxazol-4(5H)-one] | 79.4 nM
CC1(C(F)(F)c2ccc(C(F)F)cc2)OC(N2CCC3(CC2)OCc2ccccc23)=NC1=O (centres unmarked) [Example 89, 5-{[4-(Difluoromethyl)phenyl](difluoro)methyl}-5-methyl-2-(1′H,3H-spiro[2-benzofuran-1,4′-piperidin]-1′-yl)-1,3-oxazol-4(5H)-one] | 158 nM
CC1(C(O)c2ccccc2)OC(N2CCC3(CC2)OCc2ccccc23)=NC1=O (centres unmarked) [Example 90, 5-[Hydroxy(phenyl)methyl]-5-methyl-2-(1′H,3H-spiro[2-benzofuran-1,4′-piperidin]-1′-yl)-1,3-oxazol-4(5H)-one] | 126 nM
CC1(C(O)c2ccc(Cl)cc2)OC(N2CCC3(CC2)OCc2ccccc23)=NC1=O (centres unmarked) [Example 91, 5-[(4-Chlorophenyl)(hydroxy)methyl]-5-methyl-2-(1′H,3H-spiro[2-benzofuran-1,4′-piperidin]-1′-yl)-1,3-oxazol-4(5H)-one] | 25.1 nM
